Values of other authors as cited in patent US20190380992A1 (Biogen MA Inc., priority 2014, published 2019).
Structures can show the parent of a compound that is named as a salt.

How the values were obtained:
[1] = tested on: patients initiating DMF; conditions: DEFINE and CONFIRM studies
[2] = tested on: multiple sclerosis patients; conditions: second phase 3 study; glatiramer acetate as active reference
[3] = tested on: multiple sclerosis patients; conditions: compared with placebo after two years of treatment

## COC(=O)/C=C/C(=O)OC [DMF, dimethyl fumarate]
[1]
  safety profile: acceptable safety profile
[2]
  support of the DEFINE findings: findings were supported
[3]
  accumulation of disability progression: significantly reduced
  clinical relapses: significantly reduced
  lesion number and volume: significantly reduced
